Data published in PubChem BioAssay AID328 (DTP/NCI, 2004).
“And” between values parts separate entries of the source, which are not always exact repeats. Equal values may be shown once. Toxic doses and inconclusive results are not listed.

System: BDF1 mice, P388 leukemia ip, median survival T/C
Test: NCI In Vivo Anticancer Drug Screen. Data for tumor model P388 Leukemia (intraperitoneal) in B6D2F1 (BDF1) mice
Settings: endpoint: median survival time, higher = longer survival
How it was run: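 Steps: implant the tumour, treat one group with compound and another with vehicle, record survival, then divide treated by control.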

[1] = dose: 25.0 mg/kg/injection, schedule: Q01DX009 (ip), vehicle: saline
[2] = dose: 50.0 mg/kg/injection, schedule: Q01DX009 (ip), vehicle: saline
[3] = dose: 100.0 mg/kg/injection, schedule: Q01DX009 (ip), vehicle: saline
[4] = dose: 50.0 mg/kg/injection, schedule: Q01DX009 (ip), vehicle: saline with Tween-80
[5] = dose: 100.0 mg/kg/injection, schedule: Q01DX009 (ip), vehicle: saline with Tween-80

SMILES: CCC(/C=C/C(C)C1CCC2C3CC=C4CC(O)CCC4(C)C3CCC12C)C(C)C (centres undefined) (tested in a mixture with another compound)
- T/C [1]: 104 % of control
- T/C (dose: 25.0 mg/kg/injection, schedule: Q04DX003 (ip), vehicle: alcohol): 109 % of control
- T/C [2]: 95 % of control
- T/C (dose: 50.0 mg/kg/injection, schedule: Q04DX003 (ip), vehicle: alcohol): 95 % of control
- T/C [3]: 100 % of control
- T/C (dose: 100.0 mg/kg/injection, schedule: Q04DX003 (ip), vehicle: alcohol): 100 % of control

SMILES: CC1=CC(=O)C(CO)=CC1=O
- T/C (dose: 0.38 mg/kg/injection, schedule: Q01DX009 (ip), vehicle: saline with Tween-80): 105 % of control
- T/C (dose: 0.75 mg/kg/injection, schedule: Q01DX009 (ip), vehicle: saline with Tween-80): 108 % of control
- T/C (dose: 1.5 mg/kg/injection, schedule: Q01DX009 (ip), vehicle: saline with Tween-80): 110 % of control
- T/C (dose: 3.0 mg/kg/injection, schedule: Q01DX009 (ip), vehicle: saline with Tween-80): 115 % of control
- T/C (dose: 6.0 mg/kg/injection, schedule: Q01DX009 (ip), vehicle: saline with Tween-80): 107 % of control

SMILES: CCOC(=O)c1ccc(Oc2ncc([N+](=O)[O-])s2)cc1
- T/C (dose: 1.85 mg/kg/injection, schedule: Q01DX009 (ip), vehicle: saline): 90 % of control
- T/C (dose: 3.71 mg/kg/injection, schedule: Q01DX009 (ip), vehicle: saline): 100 % of control
- T/C (dose: 7.42 mg/kg/injection, schedule: Q01DX009 (ip), vehicle: saline): 90 % of control
- T/C (dose: 10.0 mg/kg/injection, schedule: Q01DX009 (ip), vehicle: saline with Tween-80): 90 % of control
- T/C (dose: 16.0 mg/kg/injection, schedule: Q01DX009 (ip), vehicle: saline with Tween-80): 86 % of control
- T/C (dose: 24.0 mg/kg/injection, schedule: Q01DX009 (ip), vehicle: saline with Tween-80): 95 % of control

SMILES: OC1CCCC12CC2 (centres undefined)
- T/C [4]: 100 % of control
- T/C [5]: 102 % of control

SMILES: COc1cc2ccc3cc[n+](C)cc3c2cc1OC
- T/C [1]: 95 % of control
- T/C (dose: 25.0 mg/kg/injection, schedule: Q04DX003 (ip), vehicle: saline): 104 % of control
- T/C [2]: 96 % of control and 100 % of control
- T/C (dose: 50.0 mg/kg/injection, schedule: Q04DX003 (ip), vehicle: saline): 95 % of control
- T/C [3]: 86 % of control
- T/C (dose: 100.0 mg/kg/injection, schedule: Q04DX003 (ip), vehicle: saline): 95 % of control and 104 % of control
- T/C (dose: 200.0 mg/kg/injection, schedule: Q04DX003 (ip), vehicle: saline): 90 % of control

SMILES: CC(=O)CC(C)=O.CC(=O)CC(C)=O.CC(C)c1ncc[nH]1.O=N[O-].[Co]
- T/C (dose: 100.0 mg/kg/injection, schedule: Q04DX002 (ip), vehicle: saline with Tween-80): 105 % of control
- T/C (dose: 200.0 mg/kg/injection, schedule: Q04DX002 (ip), vehicle: saline with Tween-80): 107 % of control

SMILES: CC(C)CNC(c1ccc2c(c1)OCO2)C(O)c1ccc2c(c1)OCO2 (centres undefined)
- T/C (dose: 100.0 mg/kg/injection, schedule: Q01DX001 (ip), vehicle: saline with Tween-80): 100 % of control
- T/C (dose: 200.0 mg/kg/injection, schedule: Q01DX001 (ip), vehicle: saline with Tween-80): 115 % of control
- T/C (dose: 400.0 mg/kg/injection, schedule: Q01DX001 (ip), vehicle: saline with Tween-80): 108 % of control

SMILES: CN=C1N[N+]2=CCCCC2S1 (centres undefined)
- T/C (dose: 60.0 mg/kg/injection, schedule: Q01DX009 (ip), vehicle: saline): 163 % of control
- T/C (dose: 120.0 mg/kg/injection, schedule: Q01DX009 (ip), vehicle: saline): 95 % of control

SMILES: CC1(C)N=C(N)N=C(N)N1c1ccc(OCCOc2ccc(S(=O)(=O)F)cc2)c(Cl)c1
- T/C (dose: 12.5 mg/kg/injection, schedule: Q04DX003 (ip), vehicle: saline with Tween-80): 158 % of control
- T/C (dose: 13.0 mg/kg/injection, schedule: Q04DX003 (ip), vehicle: saline with Tween-80): 160 % of control
- T/C (dose: 20.0 mg/kg/injection, schedule: Q04DX003 (ip), vehicle: saline with Tween-80): 185 % of control
- T/C (dose: 25.0 mg/kg/injection, schedule: Q04DX003 (ip), vehicle: saline with Tween-80): 170 % of control
- T/C (dose: 30.0 mg/kg/injection, schedule: Q04DX003 (ip), vehicle: saline with Tween-80): 185 % of control
- T/C (dose: 33.0 mg/kg/injection, schedule: Q01DX009 (ip), vehicle: Klucel (hydroxypropylcellulose) (HPC)): 227 % of control
- T/C (dose: 50.0 mg/kg/injection, schedule: Q01DX009 (ip), vehicle: Klucel (hydroxypropylcellulose) (HPC)): 154 % of control
- T/C [4]: 268 % of control
- T/C (dose: 50.0 mg/kg/injection, schedule: Q04DX003 (ip), vehicle: saline with Tween-80): 154 % of control and 162 % of control
- T/C (dose: 66.0 mg/kg/injection, schedule: Q04DX003 (ip), vehicle: saline with Tween-80): 180 % of control
- T/C (dose: 75.0 mg/kg/injection, schedule: Q01DX009 (ip), vehicle: Klucel (hydroxypropylcellulose) (HPC)): 163 % of control
- T/C (dose: 75.0 mg/kg/injection, schedule: Q04DX003 (ip), vehicle: saline with Tween-80): 170 % of control
- T/C [5]: 90 % of control
- T/C (dose: 100.0 mg/kg/injection, schedule: Q04DX003 (ip), vehicle: saline with Tween-80): 180 % of control
- T/C (dose: 150.0 mg/kg/injection, schedule: Q04DX003 (ip), vehicle: saline with Tween-80): 232 % of control
- T/C (dose: 200.0 mg/kg/injection, schedule: Q04DX003 (ip), vehicle: saline with Tween-80): 108 % of control
